The source of these data is ChEMBL document CHEMBL1158551, “Click reaction synthesis of carbohydrate derivatives from ristocetin aglycon with antibacterial and antiviral activity” (Bioorg Med Chem Lett, 2010).

For assay [1], the system named is Staphylococcus epidermidis. Briefly: Antibacterial activity against Staphylococcus epidermidis by broth microdilution method. It counts as functional.
Assay [2] deals with Staphylococcus aureus. Briefly: Antibacterial activity against methicillin-[…] Staphylococcus aureus ATCC 29213 by broth microdilution method. It counts as functional.
Assay [3] deals with Staphylococcus aureus. Briefly: Antibacterial activity against methicillin-[…] Staphylococcus aureus ATCC 33591 by broth microdilution method. The class given is functional.
For assay [4], the system named is Enterococcus faecalis. Briefly: Antibacterial activity against vancomycin and teicoplanin-resistant Enterococcus faecalis 15376 expressing VanA gene by broth microdilution method. The class given is functional.
In assay [5] the test system is Enterococcus faecalis. Nature of the assay: Antibacterial activity against vancomycin-resistant and teicoplanin-sensitive Enterococcus faecalis ATCC 5129 expressing VanB gene by broth microdilution method. It counts as functional.
Another assay relates to Bacillus subtilis. Nature of the assay: Antibacterial activity against Bacillus subtilis ATCC 6633 by broth microdilution method. It counts as functional.
The test system of assay [6] is Staphylococcus epidermidis. Briefly: Antibacterial activity against biofilm positive Staphylococcus epidermidis ATCC 35984. It counts as functional.
The subject of assay [7] is Enterococcus faecalis. Nature of the assay: Antibacterial activity against vancomycin and teicoplanin-sensitive Enterococcus faecalis ATCC 29212 by broth microdilution method. The class given is functional.
Assay [8] concerns Influenza A virus. Nature of the assay: Antiviral activity against influenza A virus H1N1 assessed as cell viability by cell based MTS assay. The class given is functional, organism-based.
Assay [9] relates to Influenza A virus. Nature of the assay: Antiviral activity against Influenza A virus H3N2 assessed as cell viability by cell based MTS assay. The class given is functional, organism-based.
Assay [10] has as its system Influenza B virus. Briefly: Antiviral activity against influenza B virus assessed as inhibition of viral induced cytopathic effect. The class given is functional, organism-based.
Assay [11] has as its system Influenza A virus. Briefly: Antiviral activity against influenza A virus H1N1 assessed as inhibition of viral induced cytopathic effect. It counts as functional, organism-based.
Assay [12] relates to Influenza B virus. Nature of the assay: Antiviral activity against influenza B virus assessed as cell viability by cell based MTS assay. It counts as functional, organism-based.
In assay [13] the test system is Influenza A virus. Briefly: Antiviral activity against Influenza A virus H3N2 assessed as inhibition of viral induced cytopathic effect. It counts as functional, organism-based.

Values after ≈ are worked out from the molar mass of the structure shown.

For the compound `Cc1c(O)cc2cc1Oc1cc(ccc1O)[C@@H](N)C(=O)N[C@H]1C(=O)N[C@@H]2C(=O)N[C@H]2C(=O)N[C@H]3C(=O)N[C@H](C(=O)N[C@@H](C(=O)O)c4cc(O)cc(O[C@H]5O[C@H](CO)[C@@H](O)[C@H](O)[C@@H]5O)c4-c4cc3ccc4O)[C@H](O[C@H]3C[C@@H](N)[C@@H](O)[C@H](C)O3)c3ccc(cc3)Oc3cc2cc(c3O[C@H]2O[C@@H](CO[C@H]3O[C@H](C)[C@@H](O)[C@H](O)[C@@H]3O)[C@H](O)[C@@H](O)[C@@H]2O[C@H]2O[C@H](CO)[C@@H](O)[C@H](O)[C@@H]2O[C@H]2O[C@H](CO)[C@@H](O)[C@@H]2O)Oc2ccc(cc2)[C@H]1O` [RISTOCETIN], the MBC stood at 16 µg/mL (≈ 7.79 µM) in [1]; 64 µg/mL (≈ 31.2 µM) against Staphylococcus aureus [2]; 64 µg/mL (≈ 31.2 µM) with Staphylococcus aureus [3]; 256 µg/mL (≈ 125 µM) with Enterococcus faecalis [4]; 256 µg/mL (≈ 125 µM) in the assay with Enterococcus faecalis [5]; 4 µg/mL (≈ 1.95 µM) with Bacillus subtilis. The results for the MBC (in assay [6]; against Enterococcus faecalis [7]) were 64 µg/mL (≈ 31.2 µM) and 256 µg/mL (≈ 125 µM), respectively. The MIC in assay [1] stood at 16 µg/mL (≈ 7.79 µM); against Staphylococcus aureus [2], 16 µg/mL (≈ 7.79 µM); in the assay on Staphylococcus aureus [3], 16 µg/mL (≈ 7.79 µM); with Enterococcus faecalis [4] it was 128 µg/mL (≈ 62.3 µM); against Enterococcus faecalis [5], 128 µg/mL (≈ 62.3 µM); with Bacillus subtilis, 2 µg/mL (≈ 0.974 µM). Moreover, the results for the MIC (in assay [6]; against Enterococcus faecalis [7]) were 32 µg/mL (≈ 15.6 µM) and 4 µg/mL (≈ 1.95 µM), respectively.

With `NC12CC3CC(CC(C3)C1)C2` [AMANTADINE], the EC50 was 19 µM in the assay on Influenza A virus [8]; 9.2 µM in the assay with Influenza A virus [9]; > 500 µM in the assay with Influenza B virus [10]; 20 µM with Influenza A virus [11]; > 500 µM with Influenza B virus [12]; 7 µM in the assay with Influenza A virus [13].

For the compound `COC(=O)[C@@H]1NC(=O)[C@H]2NC(=O)[C@H](NC(=O)[C@@H]3NC(=O)[C@H]4NC(=O)[C@H](NC(=O)[C@H](n5cc(CO[C@H]6O[C@H](COC(C)=O)[C@@H](OC(C)=O)[C@H](OC(C)=O)[C@H]6NC(C)=O)nn5)c5ccc(O)c(c5)Oc5cc4cc(O)c5C)[C@H](O)c4ccc(cc4)Oc4cc3cc(c4O)Oc3ccc(cc3)[C@H]2O)c2ccc(O)c(c2)-c2c(O)cc(O)cc21`, the MBC was 4 µg/mL (≈ 2.52 µM) in [1]; 256 µg/mL (≈ 161 µM) against Staphylococcus aureus [2]; 64 µg/mL (≈ 40.4 µM) in the assay with Staphylococcus aureus [3]; 256 µg/mL (≈ 161 µM) against Enterococcus faecalis [4]; 256 µg/mL (≈ 161 µM) in the assay on Enterococcus faecalis [5]; 8 µg/mL (≈ 5.05 µM) with Bacillus subtilis. For the same compound, the MBC in assay [6] was 8 µg/mL (≈ 5.05 µM); in the assay with Enterococcus faecalis [7] it was 256 µg/mL (≈ 161 µM). For the same compound, the MIC in assay [1] is 4 µg/mL (≈ 2.52 µM); in the assay with Staphylococcus aureus [2], 0.5 µg/mL (≈ 0.315 µM); against Staphylococcus aureus [3], 1 µg/mL (≈ 0.631 µM); with Enterococcus faecalis [4] it was 2 µg/mL (≈ 1.26 µM); against Enterococcus faecalis [5] it was 4 µg/mL (≈ 2.52 µM); with Bacillus subtilis, 2 µg/mL (≈ 1.26 µM). In addition, the MIC in assay [6] worked out at 8 µg/mL (≈ 5.05 µM); in the assay on Enterococcus faecalis [7], 4 µg/mL (≈ 2.52 µM). The EC50 with Influenza A virus [8] is 5.8 µM; in the assay with Influenza A virus [9], > 100 µM; with Influenza B virus [10], > 100 µM; with Influenza A virus [11] it was 8 µM; in the assay with Influenza B virus [12], > 100 µM; in the assay with Influenza A virus [13], > 100 µM.

As to `COC(=O)[C@@H]1NC(=O)[C@H]2NC(=O)[C@H](NC(=O)[C@@H]3NC(=O)[C@H]4NC(=O)[C@H](NC(=O)[C@H](n5cc(CO[C@H]6O[C@H](COC(C)=O)[C@@H](OC(C)=O)[C@H](OC(C)=O)[C@@H]6OC(C)=O)nn5)c5ccc(O)c(c5)Oc5cc4cc(O)c5C)[C@H](O)c4ccc(cc4)Oc4cc3cc(c4O)Oc3ccc(cc3)[C@H]2O)c2ccc(O)c(c2)-c2c(O)cc(O)cc21`, the MBC is 4 µg/mL (≈ 2.52 µM) in [1]; 4 µg/mL (≈ 2.52 µM) with Staphylococcus aureus [2]; 4 µg/mL (≈ 2.52 µM) with Staphylococcus aureus [3]; 128 µg/mL (≈ 80.7 µM) with Enterococcus faecalis [4]; 256 µg/mL (≈ 161 µM) against Enterococcus faecalis [5]; 8 µg/mL (≈ 5.04 µM) in the assay with Bacillus subtilis. Moreover, the MBC in assay [6] was 4 µg/mL (≈ 2.52 µM); against Enterococcus faecalis [7] it was 128 µg/mL (≈ 80.7 µM). The MIC amounted to 2 µg/mL (≈ 1.26 µM) in [1]; 2 µg/mL (≈ 1.26 µM) with Staphylococcus aureus [2]; 2 µg/mL (≈ 1.26 µM) with Staphylococcus aureus [3]; 2 µg/mL (≈ 1.26 µM) against Enterococcus faecalis [4]; 8 µg/mL (≈ 5.04 µM) against Enterococcus faecalis [5]; 4 µg/mL (≈ 2.52 µM) in the assay on Bacillus subtilis. In addition, the MIC (in assay [6]; against Enterococcus faecalis [7]) was 4 µg/mL (≈ 2.52 µM) throughout. In addition, the EC50 in the assay with Influenza A virus [8] is 5 µM; with Influenza A virus [9] it was > 100 µM; with Influenza B virus [10], > 100 µM; in the assay with Influenza A virus [11], 4 µM; in the assay on Influenza B virus [12], > 100 µM; in the assay with Influenza A virus [13], > 100 µM.

On to `COC(=O)[C@H]1NC(=O)[C@H]2NC(=O)[C@H](NC(=O)[C@@H]3NC(=O)[C@H]4NC(=O)[C@H](NC(=O)[C@H](N=[N+]=[N-])c5ccc(O)c(c5)Oc5cc4cc(O)c5C)[C@H](O)c4ccc(cc4)Oc4cc3cc(c4O)Oc3ccc(cc3)[C@H]2O)c2ccc(O)c(c2)-c2c(O)cc(O)cc21` [listing 1 of 2 here], for which the MBC in assay [1] is 8 µg/mL (≈ 6.67 µM); with Staphylococcus aureus [2] it was 2 µg/mL (≈ 1.67 µM); in the assay on Staphylococcus aureus [3], 2 µg/mL (≈ 1.67 µM); in the assay on Enterococcus faecalis [5], 128 µg/mL (≈ 107 µM); in the assay with Bacillus subtilis, 4 µg/mL (≈ 3.33 µM); in assay [6], 64 µg/mL (≈ 53.3 µM). The compound further showed an MBC with Enterococcus faecalis [7] of 16 µg/mL (≈ 13.3 µM). The MIC was 4 µg/mL (≈ 3.33 µM) in [1]; 2 µg/mL (≈ 1.67 µM) with Staphylococcus aureus [2]; 1 µg/mL (≈ 0.833 µM) in the assay with Staphylococcus aureus [3]; > 256 µg/mL with Enterococcus faecalis [4]; 64 µg/mL (≈ 53.3 µM) against Enterococcus faecalis [5]; 1 µg/mL (≈ 0.833 µM) against Bacillus subtilis. Also, the MIC in [6] was 32 µg/mL (≈ 26.7 µM); in the assay on Enterococcus faecalis [7], 8 µg/mL (≈ 6.67 µM).

Take `COC(=O)[C@H]1NC(=O)[C@H]2NC(=O)[C@H](NC(=O)[C@@H]3NC(=O)[C@H]4NC(=O)[C@H](NC(=O)[C@H](n5cc(CO[C@@H]6O[C@@H](C)[C@H](O)[C@@H](O)[C@H]6O)nn5)c5ccc(O)c(c5)Oc5cc4cc(O)c5C)[C@H](O)c4ccc(cc4)Oc4cc3cc(c4O)Oc3ccc(cc3)[C@H]2O)c2ccc(O)c(c2)-c2c(O)cc(O)cc21`: the MBC in assay [1] stood at 32 µg/mL (≈ 22.8 µM); in the assay on Staphylococcus aureus [2], 8 µg/mL (≈ 5.7 µM); against Staphylococcus aureus [3], 16 µg/mL (≈ 11.4 µM); against Enterococcus faecalis [4], 256 µg/mL (≈ 183 µM); with Enterococcus faecalis [5] it was 128 µg/mL (≈ 91.3 µM); with Bacillus subtilis, 16 µg/mL (≈ 11.4 µM). Moreover, the MBC was found to be 16 µg/mL (≈ 11.4 µM) in assay [6] and 256 µg/mL (≈ 183 µM) with Enterococcus faecalis [7]. Further, the MIC in assay [1] was 16 µg/mL (≈ 11.4 µM); against Staphylococcus aureus [2] it was 8 µg/mL (≈ 5.7 µM); with Staphylococcus aureus [3], 8 µg/mL (≈ 5.7 µM); in the assay with Enterococcus faecalis [4], 16 µg/mL (≈ 11.4 µM); against Enterococcus faecalis [5] it was 64 µg/mL (≈ 45.6 µM); in the assay on Bacillus subtilis, 16 µg/mL (≈ 11.4 µM). Further, the values for the MIC (in assay [6]; against Enterococcus faecalis [7]) were 16 µg/mL (≈ 11.4 µM) and 32 µg/mL (≈ 22.8 µM), respectively.

Consider `COC(=O)[C@H]1NC(=O)[C@H]2NC(=O)[C@H](NC(=O)[C@@H]3NC(=O)[C@H]4NC(=O)[C@H](NC(=O)[C@H](N=[N+]=[N-])c5ccc(O)c(c5)Oc5cc4cc(O)c5C)[C@H](O)c4ccc(cc4)Oc4cc3cc(c4O)Oc3ccc(cc3)[C@H]2O)c2ccc(O)c(c2)-c2c(O)cc(O)cc21` [listing 2 of 2 here], for which the EC50 was ≥ 9 µM with Influenza A virus [9]; > 100 µM in the assay with Influenza B virus [10]; 9.5 µM in the assay with Influenza A virus [11]; > 100 µM with Influenza B virus [12]; ≥ 20 µM in the assay on Influenza A virus [13].

`CCOC(=O)C1=C[C@@H](OC(CC)CC)[C@H](NC(C)=O)[C@@H](N)C1` [OSELTAMIVIR]: the 50% effective concentration (EC50) in the assay with Influenza A virus [8] came to 11 µM; in the assay with Influenza A virus [9] it was 38 µM; in the assay on Influenza B virus [10], 23 µM; with Influenza A virus [11] it was 12 µM; in the assay on Influenza B virus [12], 27 µM; with Influenza A virus [13], 32 µM.

As to `CC(N)C12CC3CC(CC(C3)C1)C2` (configuration not stated) [RIMANTADINE], the EC50 was 283 µM with Influenza A virus [8]; 5.6 µM in the assay with Influenza A virus [9]; > 500 µM with Influenza B virus [10]; 224 µM in the assay on Influenza A virus [11]; > 500 µM in the assay on Influenza B virus [12]; 4 µM in the assay with Influenza A virus [13].

In the case of `NC(=O)c1ncn([C@@H]2O[C@H](CO)[C@@H](O)[C@H]2O)n1` [RIBAVIRIN], the values for the EC50 in the assay on Influenza A virus [8], with Influenza B virus [10] and in the assay on Influenza B virus [12] were 11 µM, 4 µM and 4.7 µM, respectively.
